This note sets out measurements from patent publication US4435404A, “Carbostyril derivatives” (priority 1980, dated 1984).

For one series, the system named is bastard dog. In words: Increasing effect of cerebral blood flow. In kind it is in vivo. The following applies: profunda femoris vein. As for the experimental part: Thus, a bastard dog (male, 12-20 kg of body weight) was fixed in a prone (position) and was anesthetized with 20 mg/kg of pentobarbital sodium and made forced breathing to kept the frequency of respiration at 20 times/minutes. Then, the skull was bared and the surface bone was removed to expose the venous sinus by using grinder and the venous blood was took out from the venas which was cannulizated. The amount of venous blood flow was measured by using an electromagnetic blood flow meter and next measured by using drop-counter by measuring the number of drops of blood per 10 seconds.
The increasing effect of cerebral blood flow was calculated by comparing the number of blood drops in 30 seconds at the peak of increasement shown before and after the administration of compound to be tested. The each of compounds to be tested was dissolved in dimethylformamide and diluted with physiological saline solution and administered through a cannule being inserted into the profunda femoris vein.

Series [1] addresses T1, cyclic AMP phosphodiesterase (Oryctolagus cuniculus, UniProt G1ST54).
T1 construct: the supernatant was collected to use it as a crude enzyme solution; from tissue; host or cells: rabbit platelets (from platelet-rich plasma)
T1 sequence (G1ST54 1-1128): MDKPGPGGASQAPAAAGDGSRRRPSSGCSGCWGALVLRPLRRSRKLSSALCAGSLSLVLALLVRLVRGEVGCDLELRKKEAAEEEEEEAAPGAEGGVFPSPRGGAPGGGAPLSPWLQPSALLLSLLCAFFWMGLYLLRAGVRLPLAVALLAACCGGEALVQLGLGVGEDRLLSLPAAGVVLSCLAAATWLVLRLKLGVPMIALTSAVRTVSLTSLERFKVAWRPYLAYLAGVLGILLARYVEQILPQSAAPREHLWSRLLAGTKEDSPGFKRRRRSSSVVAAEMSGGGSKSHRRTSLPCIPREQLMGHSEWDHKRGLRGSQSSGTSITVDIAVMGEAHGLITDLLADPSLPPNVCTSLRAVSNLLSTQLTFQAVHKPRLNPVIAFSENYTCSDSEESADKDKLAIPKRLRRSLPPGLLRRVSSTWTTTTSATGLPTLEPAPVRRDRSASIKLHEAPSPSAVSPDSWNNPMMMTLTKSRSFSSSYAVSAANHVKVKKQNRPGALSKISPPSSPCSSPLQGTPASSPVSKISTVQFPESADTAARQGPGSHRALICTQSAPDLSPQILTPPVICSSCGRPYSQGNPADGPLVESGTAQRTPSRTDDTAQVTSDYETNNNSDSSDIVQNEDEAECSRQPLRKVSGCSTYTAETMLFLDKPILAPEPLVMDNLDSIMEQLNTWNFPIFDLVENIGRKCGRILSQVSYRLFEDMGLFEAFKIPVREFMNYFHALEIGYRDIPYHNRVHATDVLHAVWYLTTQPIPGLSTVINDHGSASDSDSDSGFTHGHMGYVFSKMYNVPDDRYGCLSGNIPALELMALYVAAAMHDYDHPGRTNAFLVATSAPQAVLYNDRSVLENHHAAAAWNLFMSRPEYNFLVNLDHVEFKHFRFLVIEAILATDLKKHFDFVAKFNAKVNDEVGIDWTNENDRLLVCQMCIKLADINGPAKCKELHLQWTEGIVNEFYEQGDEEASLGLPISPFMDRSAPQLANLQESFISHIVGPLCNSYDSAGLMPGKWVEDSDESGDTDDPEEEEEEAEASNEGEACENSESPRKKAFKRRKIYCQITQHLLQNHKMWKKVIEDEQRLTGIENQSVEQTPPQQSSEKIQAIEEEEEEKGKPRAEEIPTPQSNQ
As to the kind of experiment: Obstructive action against cyclic AMP phosphodiesterase. In kind it is biochemical. The following applies: rabbit platelet enzyme, 30° C., 20 minutes. On the procedure:
That is, for determining the obstructive activity against cyclic AMP phosphodiesterase, 10 ml of a solution obtained by adding 1 mmol of MgCl2 into 50 mmol of tris-hydrochloric acid buffer with pH 7.4 was added to the platelets obtained by further centrifuging the above-said rabbit PRP at 3,000 r.p.m. for 10 minutes, and the suspended platelets were ground by a Teflon potter type homogenizer. This was followed by two times of freezing and thawing treatment and 300-second fracturing with 200 watt supersonic waves. After additional 60-minute centrifugation with 100,000 G, the supernatant was collected to use it as a crude enzyme solution.
10 Milliliters of this crude buffer solution was added to a 1.5×20 cm DEAE-cellulose column which has previously been buffered with 50 mM of tris-acetate buffer (pH 6.0), followed by washing and elution with 30 ml of 50 mM tris-acetate buffer, and this buffer solution was subjected to linear gradient elution with 0 to 0.5 moles of sodium acetate-tris-acetatebuffer (total amount of elute was 300 ml.). The flow rate was 0.5 ml/min, and 5 ml of each fraction was batched out. […] This fraction was used as cyclic AMP phosphodiesterase.
0.1 Milliliter of an aqueous solution of each test compound of a specified concentration was mixed with 40 mmol of tris-hydrochloric acid buffer (pH 8.0, containing 50 μg of cow serum albumin and 4 mmol of MgCl2) containing predetermined 1.0 μmol of cyclic AMP (tritium cyclic AMP), and 0.2 ml of this mixed solution was used as substrate solution.
0.2 Milliliter of the above-prepared cyclic AMP phosphodiesterase of a predetermined concentration was added to said substrate solution and the mixture was reacted at 30° C. for 20 minutes, producing tritium 5'-AMP from the tritium cyclic AMP.
The reaction system was then immersed in boiling water for 2 minutes to stop the reaction, and then this reaction solution was cooled in ice water and, for converting the produced tritium 5'-AMP into tritium adenosine, the solution was added with 0.05 ml (1 mg/ml) of snake poison as 5'-nucleotidase and reacted at 30° C. for 10 minutes. The whole amount of this reaction solution was then added to a cation exchange resin (AG 500 W×4, 200-400 meshes, manufactured by Bio-Rad Co., column size: 0.5×1.5 cm), and the produced tritium anodesine alone was allowed to combine, washed with 6 ml of distilled water and eluted with 1.5 ml of 3 N-ammonia water. The whole quantity of the elutant was added with 10 ml of a triton-toluene type scintillator and the produced tritium adenosine was measured by a liquid scintillation counter to determine the phosphodiesterase activity.
In this way, the phosphodiesterase activation value (Vs) of the test compounds of the respective concentrations was determined, and the phosphodiesterase obstruction rate (%) was determined from said activation value (Vs) and control value (Vc) (obtained from water not containing any test compound) from the following formula: [formula] Known 1-methyl-3-isobutylxanthine was used as control.

Series [2] has as its system ADP-induced aggregation in rabbit platelet. As to the kind of experiment: Inhibition effect on ADP-induced aggregation in rabbit platelet. The series is classed as cell-based. The following applies: Oryctolagus cuniculus, Platelet; for inhibition at 100 µM: concentration of the test compound solution 10^-4 mole; for inhibition at 10 µM: concentration of the test compound solution 10^-5 mole; for inhibition at 1 µM: concentration of the test compound solution 10^-6 mole. On the procedure:
(§1) The platelet aggregation inhibitory effect is measured by using AG-II aggregometer (manufactured by Bryston Manufacturing Co.). The blood sample used for the test is a 1/9 (by volume) mixture of sodium citrate and whole blood collected from rabbit. Said sample is subjected to 10-minute centrifugal separation at 1,000 r.p.m. to obtain a platelet rich plasma (PRP). The thus obtained PRP is separated, and the remaining blood sample is further subjected to 15-minute centrifugal separation at 3,000 r.p.m. to obtain a platelet poor plasma (PPP).
(§2) The number of platelets in the PRP is counted by the Brecher-Clonkite Method, and the PRP is diluted with the PPP to prepare a PRP sample with platelet concentration of 300,000/mm^3 for the adenosine diphosphate (ADP)-induced aggregation test. There is also prepared a PRP sample with platelet concentration of 450,000/mm^3 for the collagen-induced aggregation test.
(§3) 0.6 Milliliter of said PRP sample is added into 0.01 ml of a solution of a test compound of a predetermined concentration and the mixture is placed in a 37° C. thermostat for one minute. Then 0.07 ml of an ADP or collagen solution is added to the mixture. Transmittance of this mixture is determined and the change of transmittance is recorded by using the aggregometer at stirrer speed of 1,100 r.p.m. […] The ADP solution is adjusted to a concentration of 7.5×10^-5 M, and the collagen solution is prepared by triturating 100 mg of collagen with 5 ml of said buffer and the supernatant is used as collagen inducer. Acetylsalicylic acid is used as control for the ADP-induced aggregation test and the collagen-induced aggregation test, respectively. The platelet aggregation inhibitory effect is measured in terms of percent inhibition with respect to the aggregation rate of the controls. The aggregation rate is calculated from the following formula:
(§4) Aggregation rate=[(c-a)/(b-a)]×100
(§5) b: transmittance of PRP containing a test compound and an aggregation inducer

Another series is described as follows: Acute Toxicity Test. The following applies: mouse, in vivo; male mice, oral administration. As for the experimental part: The test compounds were administered orally to the mice and LD50 (mg/kg) of the compounds was determined.
The test system of series [3] is collagen-induced aggregation in rabbit platelet. As to the kind of experiment: Inhibition effect on collagen-induced aggregation in rabbit platelet. The series is classed as cell-based. The following applies: Oryctolagus cuniculus, Platelet, read-out: Inhibition effect on collagen-induced aggregation; for inhibition at 10 µM: concentration of the test compound solution 10^-5 mole; for inhibition at 1 µM: concentration of the test compound solution 10^-6 mole. As for the experimental part: as §1, §2, §3, §4, §5

[4] abbreviates: read-out: Inhibition effect on ADP-induced aggregation.

A value given as a limit tells only on which side of the number the result lay.

For “6-{3-[N-(2-Hydroxyethyl)-N-cyclooctylaminocarbonyl]propoxy}-3,4-dihydrocarbostyril [Example 5]”, in the series with bastard dog (dosage 100 μg/kg), the “Increasing effect of cerebral blood flow” value is recorded as 43.5%.
Consider “6-{3-[N-(4-Hydroxybutyl)-N-cyclohexylaminocarbonyl]propoxy}carbostyril [Example 7]”, for which, in the series on bastard dog (dosage 300 μg/kg), the “Increasing effect of cerebral blood flow” value was found to be 80.2%.
For the molecule “6-{4-[N-(2,3-Dihydroxypropyl)-N-cyclohexylaminocarbonyl]butoxy}carbostyril [Example 14]”, the “Increasing effect of cerebral blood flow” value with bastard dog (dosage 100 μg/kg) worked out at 51.6%.
For the molecule “6-{4-[N-(2-Hydroxybutyl)-N-cyclohexylaminocarbonyl]butoxy}carbostyril [Example 13]”, in the series on bastard dog (dosage 30 μg/kg), the “Increasing effect of cerebral blood flow” value is on record as 98.9%.
What is called IC50 is the concentration that inhibits the measured activity by half. Higher therefore signals weaker potency in that assay. Consider `CC(C)Cn1c(=O)n(C)c(=O)c2[nH]cnc21` [1-Methyl-3-isobutylxanthine, 1-methyl-3-isobutylxanthine, reference compound], for which the concentration for half-maximal inhibition (IC50) in series [1] turned out to be 540 nM.
In general, inhibition refers to the percentage by which the read-out fell short of the control. The term LD50 denotes the dose at which mortality reaches 50%. Regarding `CCN(C(=O)CCCOc1ccc2[nH]c(=O)ccc2c1)c1ccccn1` [No. 3, 6-{3-[N-Ethyl-N-(2-pyridyl)aminocarbonyl]propoxy}carbostyril], in series [2], the inhibition at 100 µM amounted to 100%. Further, in series [2] (setting [4]), the inhibition at 10 µM stood at 31% and the inhibition at 1 µM worked out at 10%. Further, in the series “Acute Toxicity Test”, the LD50 was above 1000 mg/kg. For the same molecule, in series [3], the inhibition at 10 µM turned out to be 100% and the inhibition at 1 µM is 14%. Further, half-maximal inhibition in series [1] (IC50) was put at 400 nM.
`CN(Cc1ccco1)C(=O)CCCOc1ccc2[nH]c(=O)ccc2c1` [No. 4, 6-{3-[N-Methyl-N-(2-furylmethyl)aminocarbonyl]propoxy}carbostyril]: the inhibition at 100 µM in series [2] was determined as 85.7%; in series [3] (concentration of the test compound solution 10^-4 mole), 92.5%. For the same molecule, the figures for the inhibition at 10 µM in series [2] (setting [4]) and in series [3] were 13.7% and 35.8%, respectively. The same molecule yielded a median lethal dose (LD50) in the series “Acute Toxicity Test” above 1000 mg/kg. Moreover, in series [3], the inhibition at 1 µM turned out to be 4%. The molecule further gave an IC50 in series [1] of 600 nM.
In the case of `O=C(OCCN(C(=O)CCCOc1ccc2[nH]c(=O)ccc2c1)C1CCCCC1)c1ccccc1` [No. 10, 6-{3-[N-(2-Benzoyloxyethyl)-N-cyclohexylaminocarbonyl]propoxy}carbostyril], the inhibition at 100 µM in series [2] was 100%. Besides, the inhibition at 10 µM was found to be 80.7% in series [2] (setting [4]) and 100% in series [3]. Further, the results for the inhibition at 1 µM in series [2] (setting [4]) and in series [3] were 42.6% and 100%, respectively. Moreover, the inhibition at 0.1 µM was found to be 7.1% in series [2] (concentration of the test compound solution 10^-7 mole, read-out: Inhibition effect on ADP-induced aggregation) and 56.7% in series [3] (concentration of the test compound solution 10^-7 mole). In the series “Acute Toxicity Test”, this molecule registered a median lethal dose (LD50) above 1000 mg/kg. This molecule also gave a concentration for half-maximal inhibition (IC50) in series [1] of 12 nM.
Consider `CCCCN(CC1CCCCO1)C(=O)CCCCOc1ccc2c(c1)CCC(=O)N2` (stereo not shown) [No. 12, 6-{4-[N-Butyl-N-(2-tetrahydropyranylmethyl)aminocarbonyl]butoxy}-3,4-dihydrocarbostyril], for which 100 µM produced 100% inhibition in series [2]. Besides, the inhibition at 10 µM in series [2] (setting [4]) came to 40.2%; in series [3], 100%. Moreover, the inhibition at 1 µM in series [2] (setting [4]) is 8.3%; in series [3], 10.3%. Also, in “Acute Toxicity Test”, the LD50 was above 1000 mg/kg. The molecule further gave an IC50 in series [1] of 25 nM.
In the case of `O=C1CCc2cc(OCCCC(=O)N3CCN(Cc4ccccc4)CC3)ccc2N1` [No. 15, 6-[3-(4-Benzyl-1-piperazinylcarbonyl)propoxy]-3,4-dihydrocarbostyril], the inhibition at 100 µM in series [2] worked out at 100%. In series [2] (setting [4]), the inhibition at 10 µM is 100% and the inhibition at 1 µM was found to be 25.8%. The 50% lethal dose (LD50) in “Acute Toxicity Test” is above 1000 mg/kg. In addition, in series [3], the inhibition at 10 µM was found to be 98.8% and the inhibition at 1 µM worked out at 24.6%. Also, the half-inhibitory concentration (IC50) in series [1] worked out at 40 nM.
As for `CC(=O)OC1CCC(N(C)C(=O)CCCOc2ccc3[nH]c(=O)ccc3c2)CC1` (stereo not shown) [No. 26, 6-{3-[N--Methyl-N--(4-acetyloxycyclohexyl)aminocarbonyl]propoxy}carbostyril, reference compound], the IC50 in series [1] was 6.6 nM.
